Values belong to the molecule of their own block, whether it stands above or below them.
Legend:
Bile salt export pump = Bile salt export pump (Homo sapiens, UniProt O95342); assay: Inhibition of human BSEP overexpressed in Sf9 cell membrane vesicles assessed as uptake of [3H]-taurocholate in presence of ATP measured after 15 to 20 mins by membrane vesicle transport assay; type: ADME, cell-based
[1] = target: ATP-binding cassette sub-family C member 2 (Homo sapiens, UniProt Q92887); assay: Inhibition of human MRP2 overexpressed in Sf9 cell membrane vesicles assessed as uptake of [3H]-estradiol-17beta-D-glucuronide in presence of ATP and GSH measured after 20 mins by membrane vesicle transport assay
Sequence of ATP-binding cassette sub-family C member 2 (Q92887 whole entry): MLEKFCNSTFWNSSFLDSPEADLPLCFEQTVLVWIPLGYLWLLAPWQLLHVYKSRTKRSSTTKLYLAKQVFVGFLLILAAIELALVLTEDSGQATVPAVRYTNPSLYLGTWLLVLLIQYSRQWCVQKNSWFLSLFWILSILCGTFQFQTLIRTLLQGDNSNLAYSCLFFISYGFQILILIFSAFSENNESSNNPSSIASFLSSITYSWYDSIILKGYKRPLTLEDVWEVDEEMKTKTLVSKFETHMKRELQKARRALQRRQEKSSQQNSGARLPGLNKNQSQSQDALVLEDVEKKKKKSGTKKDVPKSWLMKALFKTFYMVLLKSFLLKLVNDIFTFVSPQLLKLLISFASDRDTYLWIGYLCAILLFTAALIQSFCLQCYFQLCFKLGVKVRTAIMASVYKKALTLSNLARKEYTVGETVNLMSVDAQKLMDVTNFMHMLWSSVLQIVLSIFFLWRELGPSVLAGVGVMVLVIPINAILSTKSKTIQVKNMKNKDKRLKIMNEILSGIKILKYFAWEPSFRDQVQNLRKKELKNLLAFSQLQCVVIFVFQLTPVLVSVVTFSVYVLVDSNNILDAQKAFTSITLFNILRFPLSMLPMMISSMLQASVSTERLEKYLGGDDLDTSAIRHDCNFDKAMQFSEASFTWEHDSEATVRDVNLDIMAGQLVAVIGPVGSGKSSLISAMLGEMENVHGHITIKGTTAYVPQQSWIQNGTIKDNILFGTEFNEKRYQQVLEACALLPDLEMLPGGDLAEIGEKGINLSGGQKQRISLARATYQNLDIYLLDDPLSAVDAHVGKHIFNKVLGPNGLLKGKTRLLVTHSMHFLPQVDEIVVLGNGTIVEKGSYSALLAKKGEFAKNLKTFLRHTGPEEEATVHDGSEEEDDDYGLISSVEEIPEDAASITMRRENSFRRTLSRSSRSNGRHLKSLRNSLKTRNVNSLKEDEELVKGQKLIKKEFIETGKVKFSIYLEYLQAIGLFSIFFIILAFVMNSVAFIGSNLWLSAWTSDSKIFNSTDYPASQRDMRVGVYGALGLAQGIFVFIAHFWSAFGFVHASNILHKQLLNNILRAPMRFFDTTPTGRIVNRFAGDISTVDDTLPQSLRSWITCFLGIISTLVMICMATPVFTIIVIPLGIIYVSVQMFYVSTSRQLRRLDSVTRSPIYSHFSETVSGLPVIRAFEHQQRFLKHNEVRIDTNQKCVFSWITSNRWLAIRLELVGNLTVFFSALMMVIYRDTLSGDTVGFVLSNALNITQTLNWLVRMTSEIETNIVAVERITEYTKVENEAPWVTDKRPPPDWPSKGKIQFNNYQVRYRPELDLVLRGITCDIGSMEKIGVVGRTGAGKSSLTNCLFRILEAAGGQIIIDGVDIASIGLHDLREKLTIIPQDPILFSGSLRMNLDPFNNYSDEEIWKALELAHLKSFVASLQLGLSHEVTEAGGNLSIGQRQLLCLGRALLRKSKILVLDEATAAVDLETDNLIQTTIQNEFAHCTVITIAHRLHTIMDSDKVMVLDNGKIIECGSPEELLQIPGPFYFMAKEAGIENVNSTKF

[2] = target: ATP-binding cassette sub-family C member 3 (Homo sapiens, UniProt O15438); assay: Inhibition of human MRP3 overexpressed in Sf9 insect cell membrane vesicles assessed as uptake of [3H]-estradiol-17beta-D-glucuronide in presence of ATP and GSH measured after 10 mins by membrane vesicle transport assay; type: ADME, cell-based
Sequence of ATP-binding cassette sub-family C member 3 (O15438 whole entry): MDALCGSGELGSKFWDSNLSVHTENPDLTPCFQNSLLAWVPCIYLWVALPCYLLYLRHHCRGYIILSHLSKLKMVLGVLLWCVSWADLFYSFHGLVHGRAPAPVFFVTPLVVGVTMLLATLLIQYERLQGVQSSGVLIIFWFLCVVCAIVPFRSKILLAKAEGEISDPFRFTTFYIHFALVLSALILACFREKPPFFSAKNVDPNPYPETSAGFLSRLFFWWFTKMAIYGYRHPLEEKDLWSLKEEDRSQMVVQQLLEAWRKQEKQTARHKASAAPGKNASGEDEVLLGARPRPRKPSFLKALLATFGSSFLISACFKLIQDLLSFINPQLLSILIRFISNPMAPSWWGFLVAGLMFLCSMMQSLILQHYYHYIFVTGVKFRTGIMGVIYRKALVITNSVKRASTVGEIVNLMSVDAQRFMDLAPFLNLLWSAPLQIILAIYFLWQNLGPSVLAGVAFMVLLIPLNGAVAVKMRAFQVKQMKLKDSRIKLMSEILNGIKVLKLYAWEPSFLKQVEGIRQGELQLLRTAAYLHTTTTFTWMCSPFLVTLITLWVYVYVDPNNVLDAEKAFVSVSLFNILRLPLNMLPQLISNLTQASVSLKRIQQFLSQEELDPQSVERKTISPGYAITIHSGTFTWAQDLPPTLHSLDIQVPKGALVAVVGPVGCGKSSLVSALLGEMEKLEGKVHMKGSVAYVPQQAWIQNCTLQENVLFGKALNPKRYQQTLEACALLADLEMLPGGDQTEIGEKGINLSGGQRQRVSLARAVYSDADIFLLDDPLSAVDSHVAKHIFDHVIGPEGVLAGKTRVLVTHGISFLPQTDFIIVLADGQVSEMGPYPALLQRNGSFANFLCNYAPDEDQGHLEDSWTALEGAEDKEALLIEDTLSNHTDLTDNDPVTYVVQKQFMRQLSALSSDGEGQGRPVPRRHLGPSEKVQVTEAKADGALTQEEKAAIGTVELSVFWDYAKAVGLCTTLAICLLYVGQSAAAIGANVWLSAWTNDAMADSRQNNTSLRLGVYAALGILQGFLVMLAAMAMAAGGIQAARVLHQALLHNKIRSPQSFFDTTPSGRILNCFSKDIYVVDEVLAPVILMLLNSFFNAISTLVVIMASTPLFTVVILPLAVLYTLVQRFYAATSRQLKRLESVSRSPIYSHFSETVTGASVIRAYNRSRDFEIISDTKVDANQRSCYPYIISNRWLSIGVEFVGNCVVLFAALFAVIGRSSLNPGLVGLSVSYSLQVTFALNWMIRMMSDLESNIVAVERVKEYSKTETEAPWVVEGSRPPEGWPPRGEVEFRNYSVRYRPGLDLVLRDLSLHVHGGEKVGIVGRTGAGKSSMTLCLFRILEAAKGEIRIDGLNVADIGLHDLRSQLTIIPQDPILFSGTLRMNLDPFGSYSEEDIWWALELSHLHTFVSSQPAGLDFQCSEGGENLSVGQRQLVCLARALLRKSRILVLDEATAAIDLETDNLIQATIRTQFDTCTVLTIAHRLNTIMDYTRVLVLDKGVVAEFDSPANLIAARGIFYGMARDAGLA

[3] = target: T1, ATP-binding cassette sub-family C member 4 (Homo sapiens, UniProt O15439); assay: Inhibition of human MRP4 overexpressed in Sf9 cell membrane vesicles assessed as uptake of [3H]-estradiol-17beta-D-glucuronide in presence of ATP and GSH measured after 20 mins by membrane vesicle transport assay; type: ADME, cell-based
T1 sequence (O15439 whole entry): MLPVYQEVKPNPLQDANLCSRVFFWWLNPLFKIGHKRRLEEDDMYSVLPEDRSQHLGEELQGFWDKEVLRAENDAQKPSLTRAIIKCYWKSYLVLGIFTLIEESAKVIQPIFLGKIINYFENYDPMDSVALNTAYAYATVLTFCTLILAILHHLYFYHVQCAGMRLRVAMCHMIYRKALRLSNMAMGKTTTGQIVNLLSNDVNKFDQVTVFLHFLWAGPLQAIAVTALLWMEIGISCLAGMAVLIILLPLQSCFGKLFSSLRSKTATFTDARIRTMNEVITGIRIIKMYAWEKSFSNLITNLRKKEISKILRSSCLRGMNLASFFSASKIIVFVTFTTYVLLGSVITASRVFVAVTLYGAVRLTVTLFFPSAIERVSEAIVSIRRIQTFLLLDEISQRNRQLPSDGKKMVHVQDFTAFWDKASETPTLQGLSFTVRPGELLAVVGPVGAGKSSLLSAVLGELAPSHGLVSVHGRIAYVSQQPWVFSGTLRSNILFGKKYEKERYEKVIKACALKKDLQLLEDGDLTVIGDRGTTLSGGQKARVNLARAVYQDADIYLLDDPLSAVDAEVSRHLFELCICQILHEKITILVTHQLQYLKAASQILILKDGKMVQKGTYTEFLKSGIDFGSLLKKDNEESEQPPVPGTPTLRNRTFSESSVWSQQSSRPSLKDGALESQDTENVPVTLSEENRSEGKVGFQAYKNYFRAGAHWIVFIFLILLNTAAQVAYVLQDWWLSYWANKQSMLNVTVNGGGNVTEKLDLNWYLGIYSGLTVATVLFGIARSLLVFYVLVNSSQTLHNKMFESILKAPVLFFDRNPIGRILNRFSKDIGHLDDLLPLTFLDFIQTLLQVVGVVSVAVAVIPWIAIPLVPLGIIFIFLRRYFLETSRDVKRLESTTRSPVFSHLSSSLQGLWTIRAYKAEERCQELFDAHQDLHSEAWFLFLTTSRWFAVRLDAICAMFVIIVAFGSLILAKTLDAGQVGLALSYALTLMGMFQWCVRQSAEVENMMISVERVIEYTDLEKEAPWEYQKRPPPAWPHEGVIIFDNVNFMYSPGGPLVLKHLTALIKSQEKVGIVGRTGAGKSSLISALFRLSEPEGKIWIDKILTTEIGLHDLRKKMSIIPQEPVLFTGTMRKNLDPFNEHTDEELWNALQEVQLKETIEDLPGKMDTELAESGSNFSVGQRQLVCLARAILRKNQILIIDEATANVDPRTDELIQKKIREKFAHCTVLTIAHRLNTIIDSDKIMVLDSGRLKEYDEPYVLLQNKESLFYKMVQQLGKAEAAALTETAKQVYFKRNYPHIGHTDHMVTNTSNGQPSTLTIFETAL

[4] = AUC in human at 1 to 1.5 g, po BID after 12 hrs; type: ADME, organism-based; settings: in vivo
[5] = Drug concentration at steady state in human at 1 to 1.5 g, po BID after 12 hrs; type: ADME, organism-based; settings: in vivo, read-out: Css
[6] = Ratio of drug concentration at steady state in human at 1 to 1.5 g, po BID after 12 hrs to IC50 for human BSEP overexpressed in Sf9 insect cells; type: ADME, organism-based; settings: in vivo
[7] = Ratio of drug concentration at steady state in human at 1 to 1.5 g, po BID after 12 hrs to IC50 for human MRP4 overexpressed in Sf9 insect cells; type: ADME, organism-based; settings: in vivo
[8] = AUC in human at 750 mg, po TID or 1250 mg, po BID after 12 hrs; type: ADME, organism-based; design: dose 750 mg, time < 12 hr, route oral; settings: in vivo
Homo sapiens [9] = assay: Drug concentration at steady state in human at 750 mg, po TID or 1250 mg, po BID after 12 hrs; type: ADME, organism-based; settings: in vivo
[10] = Ratio of drug concentration at steady state in human at 750 mg, po TID or 1250 mg, po BID after 12 hrs to IC50 for human BSEP overexpressed in Sf9 insect cells; type: ADME, organism-based; settings: in vivo
[11] = Ratio of drug concentration at steady state in human at 750 mg, po TID or 1250 mg, po BID after 12 hrs to IC50 for human MRP4 overexpressed in Sf9 insect cells; type: ADME, organism-based; settings: in vivo
[12] = AUC in human at 75 to 600 mg, iv QD after 24 hrs; type: ADME, organism-based; settings: in vivo
[13] = Drug concentration at steady state in human at 75 to 600 mg, iv QD after 24 hrs; type: ADME, organism-based; settings: in vivo, read-out: Css
[14] = AUC in human at 200 to 800 mg, po QD after 24 hrs; type: ADME, organism-based; settings: in vivo
[15] = Drug concentration at steady state in human at 200 to 800 mg, po QD after 24 hrs; type: ADME, organism-based; settings: in vivo, read-out: Css
[16] = Ratio of drug concentration at steady state in human at 200 to 800 mg, po QD after 24 hrs to IC50 for human BSEP overexpressed in Sf9 insect cells; type: ADME, organism-based; settings: in vivo
[17] = Ratio of drug concentration at steady state in human at 200 to 800 mg, po QD after 24 hrs to IC50 for human MRP4 overexpressed in Sf9 insect cells; type: ADME, organism-based; settings: in vivo
[18] = AUC in human at 600 mg, po QD after 24 hrs; type: ADME, organism-based; design: time < 24 hr, dose 600 mg, route oral; settings: in vivo
[19] = Drug concentration at steady state in human at 600 mg, po QD after 24 hrs; type: ADME, organism-based; settings: in vivo, read-out: Css
[20] = Ratio of drug concentration at steady state in human at 600 mg, po QD after 24 hrs to IC50 for human BSEP overexpressed in Sf9 insect cells; type: ADME, organism-based; settings: in vivo
[21] = Ratio of AUC in liver to plasma in Sprague-Dawley rat at 1500 mg/kg, po administered as single oral gavage measured after 24 hrs by Liquid chromatography/tandem mass spectrometry; type: ADME, organism-based; settings: liver and plasma, read-out: Ratio AUC
[22] = AUC in human at 100 mg, po BID; type: ADME, organism-based; settings: in vivo
Homo sapiens [23] = assay: Drug concentration at steady state in human at 100 mg, po BID; type: ADME, organism-based; settings: in vivo
[24] = Ratio of drug concentration at steady state in human at 100 mg, po BID to IC50 for human MRP3 overexpressed in Sf9 insect cells; type: ADME, organism-based; settings: in vivo
[25] = Ratio of drug concentration at steady state in human at 100 mg, po BID to IC50 for human BSEP overexpressed in Sf9 insect cells; type: ADME, organism-based; settings: in vivo
[26] = Ratio of drug concentration at steady state in human at 100 mg, po BID to IC50 for human MRP4 overexpressed in Sf9 insect cells; type: ADME, organism-based; settings: in vivo
[27] = AUC in human at 600 mg, po BID after 12 hrs; type: ADME, organism-based; design: dose 600 mg, time < 12 hr, route oral; settings: in vivo
[28] = Drug concentration at steady state in human at 600 mg, po BID after 12 hrs; type: ADME, organism-based; settings: in vivo, read-out: Css
[29] = AUC in human at 20 to 40 mg/kg, po QD after 24 hrs; type: ADME, organism-based; settings: in vivo
[30] = Drug concentration at steady state in human at 20 to 40 mg/kg, po QD after 24 hrs; type: ADME, organism-based; settings: in vivo, read-out: Css
[31] = Ratio of drug concentration at steady state in human at 20 to 40 mg/kg, po QD after 24 hrs to IC50 for human BSEP overexpressed in Sf9 insect cells; type: ADME, organism-based; settings: in vivo
[32] = Ratio of drug concentration at steady state in human at 20 to 40 mg/kg, po QD after 24 hrs to IC50 for human MRP4 overexpressed in Sf9 insect cells; type: ADME, organism-based; settings: in vivo
[33] = AUC in patient with osteomyelitis at 1500 mg, po QD after 24 hrs; type: ADME, organism-based; design: time < 24 hr, dose 1500 mg, route oral; settings: human, in vivo
[34] = Drug concentration at steady state in patient with osteomyelitis at 1500 mg, po QD after 24 hrs; type: ADME, organism-based; settings: human, in vivo, read-out: Css
[35] = Ratio of drug concentration at steady state in patient with osteomyelitis at 1500 mg, po QD after 24 hrs to IC50 for human BSEP overexpressed in Sf9 insect cells; type: ADME, organism-based; settings: in vivo

Sequence of Bile salt export pump (O95342 whole entry): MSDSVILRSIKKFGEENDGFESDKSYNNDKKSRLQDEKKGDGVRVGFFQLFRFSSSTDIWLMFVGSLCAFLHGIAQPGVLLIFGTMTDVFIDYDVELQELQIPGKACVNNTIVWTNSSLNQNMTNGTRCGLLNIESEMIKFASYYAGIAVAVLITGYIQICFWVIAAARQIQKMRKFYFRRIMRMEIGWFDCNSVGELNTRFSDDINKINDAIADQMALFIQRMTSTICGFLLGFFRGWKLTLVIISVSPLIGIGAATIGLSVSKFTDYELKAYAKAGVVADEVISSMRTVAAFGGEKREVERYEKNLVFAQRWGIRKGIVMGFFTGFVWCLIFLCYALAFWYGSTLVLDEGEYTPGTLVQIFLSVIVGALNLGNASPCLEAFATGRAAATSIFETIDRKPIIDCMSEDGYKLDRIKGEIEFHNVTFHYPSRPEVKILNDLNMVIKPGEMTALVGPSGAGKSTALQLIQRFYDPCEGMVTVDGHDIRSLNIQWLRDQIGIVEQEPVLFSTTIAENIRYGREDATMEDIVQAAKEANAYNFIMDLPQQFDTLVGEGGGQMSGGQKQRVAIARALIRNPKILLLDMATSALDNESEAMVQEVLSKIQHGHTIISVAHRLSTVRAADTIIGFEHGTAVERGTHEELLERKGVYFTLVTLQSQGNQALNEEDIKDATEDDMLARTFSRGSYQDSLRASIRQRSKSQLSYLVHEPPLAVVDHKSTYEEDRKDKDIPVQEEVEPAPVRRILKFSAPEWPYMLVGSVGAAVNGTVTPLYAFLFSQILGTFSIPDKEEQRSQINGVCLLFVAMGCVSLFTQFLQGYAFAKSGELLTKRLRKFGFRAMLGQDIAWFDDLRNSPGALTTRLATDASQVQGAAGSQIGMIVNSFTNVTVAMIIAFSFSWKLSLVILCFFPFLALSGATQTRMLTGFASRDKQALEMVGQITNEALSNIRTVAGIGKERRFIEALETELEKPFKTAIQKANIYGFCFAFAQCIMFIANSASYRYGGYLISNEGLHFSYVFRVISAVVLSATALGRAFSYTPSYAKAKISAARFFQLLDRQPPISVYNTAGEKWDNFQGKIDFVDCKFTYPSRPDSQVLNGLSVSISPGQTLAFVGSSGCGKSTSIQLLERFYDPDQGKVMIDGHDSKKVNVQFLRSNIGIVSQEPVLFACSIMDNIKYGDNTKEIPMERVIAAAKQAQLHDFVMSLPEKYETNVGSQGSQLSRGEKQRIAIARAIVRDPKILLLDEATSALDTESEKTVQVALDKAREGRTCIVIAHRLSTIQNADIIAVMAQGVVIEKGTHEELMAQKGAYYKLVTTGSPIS

SMILES: Cc1c(O)cccc1C(=O)N[C@@H](CSc1ccccc1)[C@H](O)CN1C[C@H]2CCCC[C@H]2C[C@H]1C(=O)NC(C)(C)C
IC50 [1]: > 133 µM | IC50 [2]: > 133 µM | IC50 [3]: 97 µM | AUC at 12 h [8]: 77.8 µM·h | Css (Homo sapiens [9]): 6.482 µM | Ratio [10]: 0.549 | Ratio [11]: 0.067

SMILES: CC(C)c1nc(CN(C)C(=O)N[C@H](C(=O)N[C@@H](Cc2ccccc2)C[C@H](O)[C@H](Cc2ccccc2)NC(=O)OCc2cncs2)C(C)C)cs1 [RITONAVIR]
AUC at 12 h [27]: 413 µM·h | concentration at 12 h [28]: 34.4 µM

SMILES: O=C(O)c1ccc(-n2nc(-c3ccccc3O)nc2-c2ccccc2O)cc1 [DEFERASIROX]
IC50 (Bile salt export pump): 58.4 µM | IC50 [1]: > 133 µM | IC50 [2]: > 133 µM | IC50 [3]: 36.5 µM | AUC at 24 h [29]: 3310 µM·h | concentration at 24 h [30]: 138 µM | Ratio [31]: 2.363 | Ratio [32]: 3.781

SMILES: CC(=O)O[C@H]1C[C@@]2(C)[C@@H](C[C@@H](O)[C@H]3[C@@]4(C)CC[C@@H](O)[C@@H](C)[C@@H]4CC[C@@]32C)/C1=C(\CCC=C(C)C)C(=O)O [FUSIDIC ACID]
IC50 [1]: > 133 µM | IC50 [2]: > 133 µM | IC50 [3]: > 133 µM | AUC at 24 h [33]: 6390 µM·h | concentration at 24 h [34]: 266 µM | Ratio [35]: 26.38

More lines, main results first:

IC50 [1]: > 133 µM | IC50 [2]: > 133 µM | IC50 [3]: 83 µM | AUC at 12 h [4]: 45700 ng·h/mL | concentration at 12 h [5]: 3810 µM | Ratio [7]: 45.853
SMILES: COc1c(C)c2c(c(O)c1C/C=C(\C)CCC(=O)OCCN1CCOCC1)C(=O)OC2 [MYCOPHENOLATE MOFETIL]
IC50 (Bile salt export pump): 76 µM | Ratio [6]: 49.945

IC50 [1]: > 133 µM | IC50 [2]: 9.3 µM | AUC at 24 h [12]: 447 µM·h | concentration at 24 h [13]: 18.6 µM
SMILES: CN(C)C(=O)CCSC(SCCC(=O)O)c1cccc(/C=C/c2ccc3ccc(Cl)cc3n2)c1 (centres undefined) [MK-571]

IC50 [1]: > 133 µM | IC50 [2]: > 133 µM | IC50 [3]: 8.1 µM | AUC at 24 h [14]: 2370 µM·h | concentration at 24 h [15]: 98.8 µM | Ratio [17]: 12.192
SMILES: Cc1ccc(Nc2nccc(N(C)c3ccc4c(C)n(C)nc4c3)n2)cc1S(N)(=O)=O [PAZOPANIB]
IC50 (Bile salt export pump): 10.3 µM | Ratio [16]: 9.588

IC50 [1]: > 133 µM | IC50 [2]: > 133 µM | IC50 [3]: > 133 µM | AUC at 24 h [18]: 181 µM·h | concentration at 24 h [19]: 7.56 µM
SMILES: CC#C[C@]1(O)CC[C@H]2[C@@H]3CCC4=CC(=O)CCC4=C3[C@@H](c3ccc(N(C)C)cc3)C[C@@]21C [MIFEPRISTONE]
IC50 (Bile salt export pump): 2.02 µM | Ratio [20]: 3.743

Kp at 24 h [21]: 27 | IC50 [2]: 1.1 µM | IC50 [3]: 13.5 µM | AUC [22]: 32800 ng·h/mL | Css (Homo sapiens [23]): 2.4 µM | Ratio [24]: 2.2 | Ratio [26]: 0.18
SMILES: CCCCNC(=O)c1ccc(Oc2ccc(CC(=O)O)cc2OC)c(NS(=O)(=O)c2ccc(Cl)cc2Cl)c1
IC50 (Bile salt export pump): 11.5 µM | Ratio [25]: 0.21
